Measured values from patent EP0206858A1, “Process for the synthesis of macromolecular derivatives of nicotinamide adenine” (SOCIETE NATIONALE ELF AQUITAINE, priority 1985, dated 1986).

How the values were obtained:
L-lactate déshydrogénase = test: Initial rate of oxidation of the reduced forms with L-lactate dehydrogenase (Example 7); format: biochemical; details: reduced forms after Na2S2O4 treatment; coenzyme 0,17 mM, Tris HCl 50 mM, 16 mM sodium pyruvate, 17 mU L-lactate dehydrogenase; NADH = 100
Description: Ces mêmes produits, mais sous forme réduite après traitement au Na2S2O4, sont soumis à un essai de mesure de la vitesse initiale d'oxydation avec l'enzyme L-lactate déshydrogénase.
Cette mesure s'effectue sur un milieu réactionnel de 0,5 ml contenant le coenzyme 0,17 mM (exprimé comme dans l'exemple 6) le même tampon 50 mM, 16 mM en pyruvate de sodium et 17 mU de L-lactate déshydrogènase à 700 U/mg. A titre comparatif la même mesure est effectuée sur NADH et le dérivé de formule 4 réduit.

hydrogénase = test: Initial rate of reduction with a hydrogenase (Example 6); format: biochemical; details: coenzyme 0,17 mM expressed as bound NAD+, Tris HCl pH8,0 50 mM, hydrogen at saturation, 29 mU hydrogenase; NAD+ = 100
Description: Les produits A à E préparés selon les procédés décrits dans les exemples 1 à 5 précédents sont soumis à un essai de mesure de la vitesse initale de réduction avec une hydrogénase.
Cette mesure s'effectue sur un milieu réactionnel de 0,28 ml contenant le coenzyme 0,17 mM, exprimé en NAD^+ lié pour les dérivés du NAD^+, 50 mM en tampon pH8,0 Tris HCl, de l'hydrogène à saturation et 29 mU d'enzyme hy- drogènase à 21 U/mg.
A titre comparatif la même mesure est effectuée sur le noyau NAD^+ et sur les dérivés substitués de formules (4) et (5).

Compound | Taux initial d'oxydation (%) (L-lactate déshydrogénase) | Taux initial de réduction (%) (hydrogénase)
NCCCCCCNc1nc2c(N)ncnc2n1[C@@H]1O[C@H](COP(=O)(O)OP(=O)(O)OC[C@H]2O[C@@H](N3C=CCC(C(N)=O)=C3)[C@H](O)[C@@H]2O)[C@@H](O)[C@H]1O [Dérivé (4) réduit] | 62,5% | 
NCCCCCCNc1nc2c(N)ncnc2n1[C@@H]1O[C@H](COP(=O)(O)OP(=O)([O-])OC[C@H]2O[C@@H]([n+]3cccc(C(N)=O)c3)[C@H](O)[C@@H]2O)[C@@H](O)[C@H]1O [Dérivé (4), C^8-(6-aminohexyl)-amino-NAD^+] |  | 50
NCCNc1ncnc2c1ncn2[C@@H]1O[C@H](COP(=O)(O)OP(=O)([O-])OC[C@H]2O[C@@H]([n+]3cccc(C(N)=O)c3)[C@H](O)[C@@H]2O)[C@@H](O)[C@H]1O [Dérivé (5), N^6-(2-aminoéthyl)-NAD^+] |  | 90
NC(=O)C1=CN([C@@H]2O[C@H](COP(=O)(O)OP(=O)(O)OC[C@H]3O[C@@H](n4cnc5c(N)ncnc54)[C@H](O)[C@@H]3O)[C@@H](O)[C@H]2O)C=CC1 [NADH, nicotinamide adénine dinucléotide] | 100% | 
NC(=O)c1ccc[n+]([C@@H]2O[C@H](COP(=O)([O-])OP(=O)(O)OC[C@H]3O[C@@H](n4cnc5c(N)ncnc54)[C@H](O)[C@@H]3O)[C@@H](O)[C@H]2O)c1 [NAD^+] |  | 100
